Measured values: patent US12612412B2, “Antiviral heterocyclic compounds” (Enanta Pharmaceuticals, Inc., priority 2021, dated 2026)

Key:
[1] = test system: genotype A, "Long" strain RSV; experiment: RSV-A assay (CPE protection in Hep-2 cells, ATPlite readout); format: cell-based, Human respiratory syncytial virus (HRSV); settings: human respiratory syncytial virus, RSV-A Long strain, MOI 0.1, CPE protection, read-out: Human RSV-A (“Long”) EC50
Method in brief: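 ATPlite luminescence (cellular ATP) served as the measure of cell health after 5 days of infection. Hep-2 cells at 8,000 per well received duplicate 2-fold compound dilutions plus virus at MOI 0.1, and EC50 was calculated from CPE protection.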

[2] = test system: HMPV clinical isolate TN/1501/A1; experiment: HMPV antiviral assay Method-B (clinical isolate TN/1501/A1 in LLC-MK2 cells, ATP-Lite readout); format: cell-based, Human metapneumovirus (HMPV); settings: human metapneumovirus, LLC-MK2, 144 h, hMPV WT1501 (clinical isolate TN/1501/A1), 6 days
Method in brief: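 LLC-MK2 cells infected in suspension with TN/1501/A1 at MOI 0.014 in serum-free medium with 2 μg/mL TPCK-trypsin (final), incubated 6 days at 37° C. Compounds tested in duplicate, 10-point 3-fold dilutions from 10 μM. Cell health read by ATP-Lite luminescence, normalised to virus-only and cells-only controls; EC50 by four-parameter logistic fit.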

SMILES	EC50 [1]	EC50 [2]
C[C@]1(C(N)=O)COc2c1cc([C@@](O)(CNC(=O)c1cc(F)c3nn(C4(F)CC4)cc3c1)C1CC1)nc2-c1ccc2c(c1)OC(F)(F)O2 [Example 848]	< 200 nM	< 500 nM
C[C@]1(C(N)=O)COc2c1cc([C@@](O)(CNC(=O)c1cc(Cl)c3nn(C4(F)CC4)cc3c1)C1CC1)nc2-c1ccc2c(c1)OC(F)(F)O2 [Example 849]	< 200 nM	< 500 nM
COc1cc(C(=O)NC[C@](O)(c2nc(-c3ccc(F)cc3)c3c(c2F)[C@](C)(C(N)=O)CO3)C(F)(F)F)cc2cn(C3CC3)nc12 [Example 850]	< 200 nM	> 500 nM
COc1cc(C(=O)NC[C@](O)(c2nc(-c3ccc(F)cc3)c3c(c2F)[C@@](C)(C(N)=O)CO3)C(F)(F)F)cc2cn(C3CC3)nc12 [Example 851]	< 200 nM	< 500 nM
COc1cc(C(=O)NC[C@](O)(c2nc(-c3ccc(F)cc3)c3c(c2F)[C@](C)(C(N)=O)CO3)C(F)(F)F)cc2cn(C(F)F)nc12 [Example 852]	< 200 nM	> 500 nM
COc1cc(C(=O)NC[C@](O)(c2nc(-c3ccc(F)cc3)c3c(c2F)[C@@](C)(C(N)=O)CO3)C(F)(F)F)cc2cn(C(F)F)nc12 [Example 853]	< 200 nM	< 500 nM
COc1cc(C(=O)NC[C@](O)(c2nc(-c3ccc(F)cc3)c3c(c2F)[C@](C)(C(N)=O)CO3)C(F)(F)F)cc2cc(Cl)c(C)nc12 [Example 854]	> 200 nM	> 500 nM
COc1cc(C(=O)NC[C@](O)(c2nc(-c3ccc(F)cc3)c3c(c2F)[C@@](C)(C(N)=O)CO3)C(F)(F)F)cc2cc(Cl)c(C)nc12 [Example 855]	< 200 nM	< 500 nM
C[C@]1(C(N)=O)COc2c1cc([C@@](O)(CNC(=O)c1cc(Cl)c3nn(C(F)F)cc3c1)C1CC1)nc2-c1ccc2c(c1)OC(F)(F)O2 [Example 856]	< 200 nM	< 500 nM
COc1cc(C(=O)NC[C@](O)(c2nc(-c3ccc4c(c3)OC(F)(F)O4)c3c(c2F)[C@@](C)(C(N)=O)CO3)C2CC2)cc2cn(C3CC3)nc12 [Example 857]	< 200 nM	< 500 nM
C[C@]1(C(N)=O)COc2c(-c3ccc4c(c3)OC(F)(F)O4)nc([C@@](O)(CNC(=O)c3cc(Cl)c4nn(C5CC5)cc4c3)C3CC3)c(F)c21 [Example 858]	< 200 nM	< 500 nM
COc1cc(C(=O)NC[C@](O)(c2nc(-c3ccc4c(c3)OC(F)(F)O4)c3c(c2F)[C@@](C)(C(N)=O)CO3)C2CC2)cc2cn(C3(F)CC3)nc12 [Example 859]	< 200 nM	< 500 nM
COc1cc(C(=O)NC[C@](O)(c2nc(-c3ccc4c(c3)OC(F)(F)O4)c3c(c2F)[C@@](C)(C(N)=O)CO3)C2CC2)cc2cn(C(F)F)nc12 [Example 860]	< 200 nM	< 500 nM
COc1cc(C(=O)NC[C@](O)(c2nc(-c3ccc4c(c3)OC(F)(F)O4)c3c(c2F)[C@@](C)(C(N)=O)CO3)C2CC2)cc2cc(Cl)c(C)nc12 [Example 861]	< 200 nM	< 500 nM
COc1cc(C(=O)NC[C@](O)(c2nc(-c3cc(Cl)c(F)cc3F)c3c(c2F)[C@@](C)(C(N)=O)CO3)C2CC2)cc2cn(C3CC3)nc12 [Example 862]	< 200 nM	< 500 nM
COc1cc(C(=O)NC[C@](O)(c2cc3c(c(-c4ccc(F)c(C(F)(F)F)c4)n2)OC[C@]3(C)C(N)=O)C2CC2)cc2cn(C3CC3)nc12 [Example 871]	< 200 nM	< 500 nM
COc1cc(C(=O)NC[C@](O)(c2cc3c(c(-c4ccc(F)cc4Cl)n2)OC[C@]3(C)C(N)=O)C2CC2)cc2cn(C3CC3)nc12 [Example 872]	< 200 nM	< 500 nM
COc1cc(C(=O)NC[C@](O)(c2cc3c(c(-c4ccc(Cl)cc4F)n2)OC[C@]3(C)C(N)=O)C2CC2)cc2cn(C3CC3)nc12 [Example 873]	< 200 nM	< 500 nM
COc1cc(C(=O)NC[C@](O)(c2cc3c(c(-c4ccc(F)cc4)n2)OC[C@]3(C)C(N)=O)C(F)(F)F)cc2nn(C3CC3)cc12 [Example 874]	> 200 nM	> 500 nM
COc1cc(C(=O)NC[C@](O)(c2cc3c(c(-c4ccc(F)cc4)n2)OC[C@]3(C)C(N)=O)C(F)(F)F)cc2c(=O)n(C3CC3)[nH]c12 [Example 876]	> 200 nM	> 500 nM
C[C@]1(C(N)=O)COc2c1cc([C@@](O)(CNC(=O)c1cc(OCC3CC3)c3nn(C4(F)CC4)cc3c1)C(F)(F)F)nc2-c1ccc(F)cc1 [Example 877]	< 200 nM	< 500 nM
C[C@]1(C(N)=O)COc2c1cc([C@@](O)(CNC(=O)c1cc(OCCF)c3nn(C4(F)CC4)cc3c1)C(F)(F)F)nc2-c1ccc(F)cc1 [Example 878]	< 200 nM	> 500 nM
Cc1nc2c(Cl)cc(C(=O)NC[C@](O)(c3cc4c(c(-c5ccc(F)cc5)n3)OC[C@]4(C)C(N)=O)C(F)(F)F)cc2cc1Cl [Example 883]	< 200 nM	> 500 nM

SMILES	EC50 [1]	EC50 [2]
Cc1nc2c(Cl)cc(C(=O)NC[C@](O)(c3cc4c(c(-c5ccc(F)c(Cl)c5)n3)OC[C@]4(C)C(N)=O)C(F)(F)F)cc2cc1Cl [Example 884]	< 200 nM	> 500 nM
Cc1nc2c(OC3CC3)cc(C(=O)NC[C@](O)(c3cc4c(c(-c5ccc(F)cc5)n3)OC[C@]4(C)C(N)=O)C(F)(F)F)cc2cc1Cl [Example 885]	< 200 nM	< 500 nM
Cc1nc2c(OC3CC3)cc(C(=O)NC[C@](O)(c3cc4c(c(-c5ccc(F)c(Cl)c5)n3)OC[C@]4(C)C(N)=O)C(F)(F)F)cc2cc1Cl [Example 886]	< 200 nM	< 500 nM
Cc1onc2ccc(C(=O)NC[C@](O)(c3cc4c(c(-c5ccc(F)cc5)n3)OC[C@]4(C)C(N)=O)C(F)(F)F)cc12 [Example 887]	< 200 nM	> 500 nM
COc1cc(C(=O)NC[C@](O)(c2cc3c(c(-c4ccc(F)cc4)n2)OC[C@]3(C)C(N)=O)C(F)(F)F)cc2c(C)onc12 [Example 888]	< 200 nM	> 500 nM
C[C@]1(C(N)=O)COc2c1cc([C@@](O)(CNC(=O)c1cc(OCC(F)F)c3nn(C4(F)CC4)cc3c1)C(F)(F)F)nc2-c1ccc(F)cc1 [Example 889]	< 200 nM	> 500 nM
COc1cc(C(=O)NC[C@](O)(c2cc3c(c(-c4ccc(C5CC5)cc4)n2)OC[C@]3(C)C(N)=O)C(F)(F)F)cc2cn(C3CC3)nc12 [Example 891]	< 200 nM	> 500 nM
COc1cc(C(=O)NC[C@](O)(c2cc3c(c(-c4ccc5c(c4)OC(F)(F)O5)n2)OC[C@]3(C)C(N)=O)C(F)(F)F)cc2cn(C3CC3)nc12 [Example 893]	< 200 nM	< 500 nM
COc1cc(C(=O)NC[C@](O)(c2cc3c(c(-c4ccc(C(F)F)cc4)n2)OC[C@]3(C)C(N)=O)C(F)(F)F)cc2cn(C3CC3)nc12 [Example 896]	< 200 nM	> 500 nM
COc1cc(C(=O)NC[C@](O)(c2cc3c(c(-c4ccc(OC(F)(F)F)cc4)n2)OC[C@]3(C)C(N)=O)C(F)(F)F)cc2cn(C3CC3)nc12 [Example 898]	< 200 nM	> 500 nM
COc1cc(C(=O)NCC(O)(c2cc3c(c(-c4cnc(C(F)(F)F)nc4)n2)OC[C@]3(C)C(N)=O)C(F)(F)F)cc2cn(C3CC3)nc12 (stereo partly drawn) [Example 899]	> 200 nM	> 500 nM
COc1cc(C(=O)NC[C@](O)(c2cc3c(c(-c4ccc(F)cc4F)n2)OC[C@]3(C)C(N)=O)C(F)(F)F)cc2cn(C3CC3)nc12 [Example 901]	< 200 nM	< 500 nM
COc1cc(C(=O)NCC(O)(c2cc3c(c(-c4cnn(C)c4)n2)OC[C@]3(C)C(N)=O)C(F)(F)F)cc2cn(C3CC3)nc12 (stereo partly drawn) [Example 903]	< 200 nM	> 500 nM
COc1cc(C(=O)NC[C@](O)(c2cc3c(c(-c4ccc5c(c4)OCO5)n2)OC[C@]3(C)C(N)=O)C(F)(F)F)cc2cn(C3CC3)nc12 [Example 908]	< 200 nM	< 500 nM
COc1cc(C(=O)NCC(O)(c2cc3c(c(-c4ccc(F)c(OC(F)F)c4)n2)OC[C@]3(C)C(N)=O)C(F)(F)F)cc2cn(C3CC3)nc12 (stereo partly drawn) [Example 909]	< 200 nM	> 500 nM
COc1cc(C(=O)NC[C@](O)(c2cc3c(c(-c4ccccc4F)n2)OC[C@]3(C)C(N)=O)C(F)(F)F)cc2cn(C3CC3)nc12 [Example 911]	< 200 nM	< 500 nM
COc1cc(C(=O)NC[C@](O)(c2cc3c(c(-c4cccc(F)c4)n2)OC[C@]3(C)C(N)=O)C(F)(F)F)cc2cn(C3CC3)nc12 [Example 912]	< 200 nM	< 500 nM
COc1cc(-c2nc([C@](O)(CNC(=O)c3cc(OC)c4nn(C5CC5)cc4c3)C(F)(F)F)cc3c2OC[C@]3(C)C(N)=O)ccc1F [Example 913]	> 200 nM	> 500 nM
COc1cc(-c2nc([C@@](O)(CNC(=O)c3cc(OC)c4nn(C5CC5)cc4c3)C(F)(F)F)cc3c2OC[C@]3(C)C(N)=O)ccc1F [Example 914]	< 200 nM	> 500 nM
COc1cc(C(=O)NC[C@](O)(c2cc3c(c(-c4ccc(F)c(F)c4F)n2)OC[C@]3(C)C(N)=O)C(F)(F)F)cc2cn(C3CC3)nc12 [Example 915]	< 200 nM	< 500 nM
COc1cc(C(=O)NCC(O)(c2cc3c(c(-c4cc(F)c(F)c(F)c4)n2)OC[C@]3(C)C(N)=O)C(F)(F)F)cc2cn(C3CC3)nc12 (stereo partly drawn) [Example 916]	< 200 nM	< 500 nM
COc1cc(C(=O)NC[C@@](O)(c2cc3c(c(-c4cccc(OC(F)F)c4)n2)OC[C@]3(C)C(N)=O)C(F)(F)F)cc2cn(C3CC3)nc12 [Example 917]	< 200 nM	> 500 nM
